From ChEMBL document CHEMBL1158644, “An investigation of the antitumor activity of Micromelum integerrimum (Rutaceae)” (1979)
Activity calls are given as the source filed them. The calls are words filed in the database; no cut-off is given here.

Tests used:
CCRF S-180 = assay: Cytotoxicity against mouse S180 cells; format: functional, cell-based
L1210 = assay: Cytotoxicity against mouse L1210 cells; format: functional, cell-based
9KB = assay: Cytotoxicity against human 9KB cells; format: functional, cell-based
CA-755 = assay: In vivo antitumor activity against mouse CA-755 cells at 100 mg/kg; format: functional
P388 [1] = assay: In vivo antitumor activity against mouse P388 cells at 400 mg/kg; format: functional
[2] = tested on: Lewis lung carcinoma cell line; assay: In vivo antitumor activity against mouse LLC at 1.25 mg/kg; format: functional
P388 [3] = assay: In vivo antitumor activity against mouse P388 cells at 10 mg/kg; format: functional

SMILES	Activity (CCRF S-180)	Activity (L1210)	Activity (9KB)	T/C (CA-755)	T/C (P388 [1])	T/C [2]	T/C (P388 [3])
COc1cc2ccc(=O)oc2cc1O [SCOPOLETIN]	inactive	inactive	inactive	48%	130%		
COc1cc2oc(=O)ccc2cc1C1OC(=O)[C@]2(C)O[C@H]12 (some centres undefined)			inactive			228%	149%
COc1cc2oc(=O)ccc2cc1C1C=C(C)C(=O)O1 (centres undefined)			inactive				
